Measured values: ChEMBL document CHEMBL1146687, “Novel semi-synthetic nocathiacin antibiotics: synthesis and antibacterial activity of bis- and mono-O-alkylated derivatives” (Bioorg Med Chem Lett, 2004)
≈ marks a conversion by molar mass, not a printed value.

Tests used:
Enterococcus faecalis [1] = experiment: In vitro antibacterial activity against Enterococcus faecalis; type: functional
Staphylococcus aureus [2] = experiment: In vivo efficacy;(sc) tested for protection against staphylococcus infections in mice; type: functional; conditions: read-out: PD50
Staphylococcus aureus [3] = experiment: In vitro antibacterial activity against Staphylococcus aureus; type: functional
Streptococcus pneumoniae [4] = experiment: In vitro antibacterial activity against Streptococcus pneumoniae; type: functional
[5] = Aqueous solubility at neutral pH; type: physicochemical
Enterococcus faecalis [6] = experiment: In vitro antibacterial activity against Enterococcus faecalis; 0.06-0.125; type: functional
Staphylococcus aureus [7] = experiment: In vitro antibacterial activity against […]; 0.125-0.25; type: functional
Streptococcus pneumoniae [8] = experiment: In vitro antibacterial activity against Streptococcus pneumoniae; 0.003-0.015; type: functional

SMILES | MIC (Enterococcus faecalis [1]) [µg/mL] | ED50 (Staphylococcus aureus [2]) [mg/kg] | MIC (Staphylococcus aureus [3]) [µg/mL] | MIC (Streptococcus pneumoniae [4]) [µg/mL] | solubility [5] [µg/mL] | MIC (Enterococcus faecalis [6]) [µg/mL] | MIC (Staphylococcus aureus [7]) [µg/mL] | MIC (Streptococcus pneumoniae [8]) [µg/mL]
C=C(NC(=O)c1csc(-c2nc3c(cc2OC)-c2nc(cs2)C(=O)N[C@@H]([C@@H](C)O)C(=O)N/C(=C(\C)OC)c2nc(cs2)C(=O)N[C@@H]2c4nc(cs4)C(=O)N[C@@H](COC(=O)c4c5c6c(cccc6n4O)COC(=O)[C@@H](O[C@H]4C[C@](C)(O)[C@H](N(C)C)[C@H](C)O4)[C@H]2OC5)c2nc-3cs2)n1)C(N)=O | 0.015 (≈ 0.0103 µM) | > 10 | 0.015 (≈ 0.0103 µM) | 0.003 (≈ 0.00207 µM) |  |  |  | 
C=C(NC(=O)c1csc(-c2nc3c(cc2OCOP(=O)(O)O)-c2nc(cs2)C(=O)N[C@@H]([C@@H](C)O)C(=O)N/C(=C(\C)OC)c2nc(cs2)C(=O)N[C@@H]2c4nc(cs4)C(=O)N[C@@H](COC(=O)c4c5c6c(cccc6n4OCOP(=O)(O)O)COC(=O)[C@@H](O[C@H]4C[C@](C)(O)[C@H](N(C)C)[C@H](C)O4)[C@H]2OC5)c2nc-3cs2)n1)C(N)=O | 0.25 (≈ 0.151 µM) | 0.15 | 0.125 (≈ 0.0754 µM) | 0.015 (≈ 0.00905 µM) | > 2000 |  |  | 
C=C(NC(=O)c1csc(-c2nc3c(cc2OCCCS(=O)(=O)O)-c2nc(cs2)C(=O)N[C@@H]([C@@H](C)O)C(=O)N/C(=C(\C)OC)c2nc(cs2)C(=O)N[C@@H]2c4nc(cs4)C(=O)N[C@@H](COC(=O)c4c5c6c(cccc6n4OCCCS(=O)(=O)O)COC(=O)[C@@H](O[C@H]4C[C@](C)(O)[C@H](N(C)C)[C@H](C)O4)[C@H]2OC5)c2nc-3cs2)n1)C(N)=O | 128 (≈ 76.1 µM) |  | > 128 | 0.5 (≈ 0.297 µM) | > 2000 |  |  | 
C=C(NC(=O)c1csc(-c2nc3c(cc2OCCN2CCOCC2)-c2nc(cs2)C(=O)N[C@@H]([C@@H](C)O)C(=O)N/C(=C(\C)OC)c2nc(cs2)C(=O)N[C@@H]2c4nc(cs4)C(=O)N[C@@H](COC(=O)c4c5c6c(cccc6n4OCCN4CCOCC4)COC(=O)[C@@H](O[C@H]4C[C@](C)(O)[C@H](N(C)C)[C@H](C)O4)[C@H]2OC5)c2nc-3cs2)n1)C(N)=O | 0.25 (≈ 0.15 µM) | > 10 | 1 (≈ 0.601 µM) | 0.03 (≈ 0.018 µM) |  |  |  | 
C=C(NC(=O)c1csc(-c2nc3c(cc2O)-c2nc(cs2)C(=O)N[C@@H]([C@@H](C)O)C(=O)N/C(=C(\C)OC)c2nc(cs2)C(=O)N[C@@H]2c4nc(cs4)C(=O)N[C@@H](COC(=O)c4c5c6c(cccc6n4OCCN4CCOCC4)COC(=O)[C@@H](O[C@H]4C[C@](C)(O)[C@H](N(C)C)[C@H](C)O4)[C@H]2OC5)c2nc-3cs2)n1)C(N)=O |  | 3.4 |  |  |  | < 0.125 | < 0.25 | < 0.015
C=C(NC(=O)c1csc(-c2nc3c(cc2O)-c2nc(cs2)C(=O)N[C@@H]([C@@H](C)O)C(=O)N/C(=C(\C)OC)c2nc(cs2)C(=O)N[C@@H]2c4nc(cs4)C(=O)N[C@@H](COC(=O)c4c5c6c(cccc6n4OCCCN)COC(=O)[C@@H](O[C@H]4C[C@](C)(O)[C@H](N(C)C)[C@H](C)O4)[C@H]2OC5)c2nc-3cs2)n1)C(N)=O | 1 (≈ 0.669 µM) | > 10 | 0.25 (≈ 0.167 µM) | 0.06 (≈ 0.0401 µM) |  |  |  | 
C=C(NC(=O)c1csc(-c2nc3c(cc2O)-c2nc(cs2)C(=O)N[C@@H]([C@@H](C)O)C(=O)N/C(=C(\C)OC)c2nc(cs2)C(=O)N[C@@H]2c4nc(cs4)C(=O)N[C@@H](COC(=O)c4c5c6c(cccc6n4OCCOCCOCCOCCOCCOCO)COC(=O)[C@@H](O[C@H]4C[C@](C)(O)[C@H](N(C)C)[C@H](C)O4)[C@H]2OC5)c2nc-3cs2)n1)C(N)=O | 0.5 (≈ 0.296 µM) | > 10 | 0.125 (≈ 0.0741 µM) | 0.007 (≈ 0.00415 µM) |  |  |  | 
C=C(NC(=O)c1csc(-c2nc3c(cc2O)-c2nc(cs2)C(=O)N[C@@H]([C@@H](C)O)C(=O)N/C(=C(\C)OC)c2nc(cs2)C(=O)N[C@@H]2c4nc(cs4)C(=O)N[C@@H](COC(=O)c4c5c6c(cccc6n4OC)COC(=O)[C@@H](O[C@H]4C[C@](C)(O)[C@H](N(C)C)[C@H](C)O4)[C@H]2OC5)c2nc-3cs2)n1)C(N)=O | 0.125 (≈ 0.0861 µM) | < 0.62 | 0.03 (≈ 0.0207 µM) | 0.003 (≈ 0.00207 µM) |  |  |  | 
C=C(NC(=O)c1csc(-c2nc3c(cc2O)-c2nc(cs2)C(=O)N[C@@H]([C@@H](C)O)C(=O)N/C(=C(\C)OC)c2nc(cs2)C(=O)N[C@@H]2c4nc(cs4)C(=O)N[C@@H](COC(=O)c4c5c6c(cccc6n4OCCCOC4O[C@H](CO)[C@@H](O)[C@H](O)[C@H]4O)COC(=O)[C@@H](O[C@H]4C[C@](C)(O)[C@H](N(C)C)[C@H](C)O4)[C@H]2OC5)c2nc-3cs2)n1)C(N)=O (stereo not given in full) | > 128 | > 10 | 16 (≈ 9.65 µM) | 0.06 (≈ 0.0362 µM) |  |  |  | 
C=C(NC(=O)c1csc(-c2nc3c(cc2O)-c2nc(cs2)C(=O)N[C@@H]([C@@H](C)O)C(=O)N/C(=C(\C)OC)c2nc(cs2)C(=O)N[C@@H]2c4nc(cs4)C(=O)N[C@@H](COC(=O)c4c5c6c(cccc6n4OCP(=O)(OCC)OCC)COC(=O)[C@@H](O[C@H]4C[C@](C)(O)[C@H](N(C)C)[C@H](C)O4)[C@H]2OC5)c2nc-3cs2)n1)C(N)=O | 0.03 (≈ 0.0189 µM) | 1.6 | 0.015 (≈ 0.00945 µM) | 0.001 (≈ 0.00063 µM) |  |  |  | 
C=C(NC(=O)c1csc(-c2nc3c(cc2O)-c2nc(cs2)C(=O)N[C@@H]([C@@H](C)O)C(=O)N/C(=C(\C)OC)c2nc(cs2)C(=O)N[C@@H]2c4nc(cs4)C(=O)N[C@@H](COC(=O)c4c5c6c(cccc6n4OCCCN4CCN(C)CC4)COC(=O)[C@@H](O[C@H]4C[C@](C)(O)[C@H](N(C)C)[C@H](C)O4)[C@H]2OC5)c2nc-3cs2)n1)C(N)=O | 1 (≈ 0.634 µM) | 8.7 | 1 (≈ 0.634 µM) | 0.03 (≈ 0.019 µM) |  |  |  | 
C=C(NC(=O)c1csc(-c2nc3c(cc2OCCCS(=O)(=O)O)-c2nc(cs2)C(=O)N[C@@H]([C@@H](C)O)C(=O)N/C(=C(\C)OC)c2nc(cs2)C(=O)N[C@@H]2c4nc(cs4)C(=O)N[C@@H](COC(=O)c4c5c6c(cccc6n4O)COC(=O)[C@@H](O[C@H]4C[C@](C)(O)[C@H](N(C)C)[C@H](C)O4)[C@H]2OC5)c2nc-3cs2)n1)C(N)=O | 32 (≈ 20.5 µM) | > 10 | 2 (≈ 1.28 µM) | 0.25 (≈ 0.16 µM) |  |  |  | 
C=C(NC(=O)c1csc(-c2nc3c(cc2OCC(=O)N(C)C)-c2nc(cs2)C(=O)N[C@@H]([C@@H](C)O)C(=O)N/C(=C(\C)OC)c2nc(cs2)C(=O)N[C@@H]2c4nc(cs4)C(=O)N[C@@H](COC(=O)c4c5c6c(cccc6n4OCC(=O)N(C)C)COC(=O)[C@@H](O[C@H]4C[C@](C)(O)[C@H](N(C)C)[C@H](C)O4)[C@H]2OC5)c2nc-3cs2)n1)C(N)=O | 4 (≈ 2.49 µM) | > 10 | 8 (≈ 4.98 µM) | 0.125 (≈ 0.0777 µM) |  |  |  | 
C=CCOc1cc2c(nc1-c1nc(C(=O)NC(=C)C(N)=O)cs1)-c1csc(n1)[C@@H]1COC(=O)c3c4c5c(cccc5n3OCC=C)COC(=O)[C@@H](O[C@H]3C[C@](C)(O)[C@H](N(C)C)[C@H](C)O3)[C@@H](OC4)[C@H](NC(=O)c3csc(n3)/C(=C(/C)OC)NC(=O)[C@H]([C@@H](C)O)NC(=O)c3csc-2n3)c2nc(cs2)C(=O)N1 | 0.25 (≈ 0.165 µM) | > 10 | 0.06 (≈ 0.0395 µM) | 0.0005 (≈ 0.000329 µM) |  |  |  | 
C=C(NC(=O)c1csc(-c2nc3c(cc2O)-c2nc(cs2)C(=O)N[C@@H]([C@@H](C)O)C(=O)N/C(=C(\C)OC)c2nc(cs2)C(=O)N[C@@H]2c4nc(cs4)C(=O)N[C@@H](COC(=O)c4c5c6c(cccc6n4OCOP(=O)(OC(C)(C)C)OC(C)(C)C)COC(=O)[C@@H](O[C@H]4C[C@](C)(O)[C@H](N(C)C)[C@H](C)O4)[C@H]2OC5)c2nc-3cs2)n1)C(N)=O | 0.015 (≈ 0.00904 µM) | 3 | 0.125 (≈ 0.0753 µM) | 0.015 (≈ 0.00904 µM) | > 2000 |  |  | 
C=C(NC(=O)c1csc(-c2nc3c(cc2O)-c2nc(cs2)C(=O)N[C@@H]([C@@H](C)O)C(=O)N/C(=C(\C)OC)c2nc(cs2)C(=O)N[C@@H]2c4nc(cs4)C(=O)N[C@@H](COC(=O)c4c5c6c(cccc6n4OCCC[N+](C)(C)C)COC(=O)[C@@H](O[C@H]4C[C@](C)(O)[C@H](N(C)C)[C@H](C)O4)[C@H]2OC5)c2nc-3cs2)n1)C(N)=O | 2 | > 10 | > 128 | 0.5 |  |  |  | 
C=C(NC(=O)c1csc(-c2nc3c(cc2O)-c2nc(cs2)C(=O)N[C@@H]([C@@H](C)O)C(=O)N/C(=C(\C)OC)c2nc(cs2)C(=O)N[C@@H]2c4nc(cs4)C(=O)N[C@@H](COC(=O)c4c5c6c(cccc6n4OCCn4ccnc4)COC(=O)[C@@H](O[C@H]4C[C@](C)(O)[C@H](N(C)C)[C@H](C)O4)[C@H]2OC5)c2nc-3cs2)n1)C(N)=O | 1 (≈ 0.653 µM) | > 10 | 0.5 (≈ 0.326 µM) | 0.015 (≈ 0.00979 µM) |  |  |  | 
C=C(NC(=O)c1csc(-c2nc3c(cc2O)-c2nc(cs2)C(=O)N[C@@H]([C@@H](C)O)C(=O)N/C(=C(\C)OC)c2nc(cs2)C(=O)N[C@@H]2c4nc(cs4)C(=O)N[C@@H](COC(=O)c4c5c6c(cccc6n4OCCCS(=O)(=O)O)COC(=O)[C@@H](O[C@H]4C[C@](C)(O)[C@H](N(C)C)[C@H](C)O4)[C@H]2OC5)c2nc-3cs2)n1)C(N)=O | 0.125 (≈ 0.0801 µM) | 4 | 0.125 (≈ 0.0801 µM) | 0.007 (≈ 0.00449 µM) | > 2000 |  |  | 
C=C(NC(=O)c1csc(-c2nc3c(cc2O)-c2nc(cs2)C(=O)N[C@@H]([C@@H](C)O)C(=O)N/C(=C(\C)OC)c2nc(cs2)C(=O)N[C@@H]2c4nc(cs4)C(=O)N[C@@H](COC(=O)c4c5c6c(cccc6n4OCCC(=O)O)COC(=O)[C@@H](O[C@H]4C[C@](C)(O)[C@H](N(C)C)[C@H](C)O4)[C@H]2OC5)c2nc-3cs2)n1)C(N)=O | 0.25 (≈ 0.166 µM) | 10 | 0.125 (≈ 0.0828 µM) | 0.03 (≈ 0.0199 µM) | ~70 (≈ 46.4 µM) |  |  | 
